Results as given in PubChem BioAssay (NCI).
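Dose response: 5 concentrations. Exposure: 48 h. Format: 96-well plates. Endpoint: linear interpolation; highest concentration if not reached. GI50 marks 50% less growth. Definition used: TGI = concentration required for complete inhibition of growth.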

What was measured:
Test in all cases: inhibition of tumour cell growth, NCI panel, 48 h
NCI/ADR-RES ovarian = tested on: NCI/ADR-RES ovarian
SK-OV-3 ovarian = tested on: SK-OV-3 ovarian
HOP-92 NSCLC = tested on: HOP-92 NSCLC
A549 NSCLC = tested on: A549 NSCLC
NCI-H226 lung = tested on: NCI-H226 lung
MALME-3M melanoma = tested on: MALME-3M melanoma
HOP-62 NSCLC = tested on: HOP-62 NSCLC
PC-3 prostate = tested on: PC-3 prostate
NCI-H522 lung = tested on: NCI-H522 lung
HL-60(TB) leukemia = tested on: HL-60(TB) leukemia
786-0 renal = tested on: 786-0 renal
OVCAR-5 ovarian = tested on: OVCAR-5 ovarian
UACC-62 melanoma = tested on: UACC-62 melanoma
SN12C renal = tested on: SN12C renal
SK-MEL-2 melanoma = tested on: SK-MEL-2 melanoma
TK-10 renal = tested on: TK-10 renal
BT-549 breast = tested on: BT-549 breast
NCI-H23 lung = tested on: NCI-H23 lung
NCI-H460 lung = tested on: NCI-H460 lung
UO-31 renal = tested on: UO-31 renal
A498 renal = tested on: A498 renal
MDA-MB-231 breast = tested on: MDA-MB-231 breast
CAKI-1 renal = tested on: CAKI-1 renal
M14 melanoma = tested on: M14 melanoma
RPMI-8226 leukemia = tested on: RPMI-8226 leukemia
SR leukemia = tested on: SR leukemia
HCT-15 colon = tested on: HCT-15 colon
U251 CNS = tested on: U251 CNS
OVCAR-8 ovarian = tested on: OVCAR-8 ovarian
SF-539 CNS = tested on: SF-539 CNS
COLO 205 colon = tested on: COLO 205 colon
HT29 colon = tested on: HT29 colon
KM12 colon = tested on: KM12 colon
RXF 393 renal = tested on: RXF 393 renal
SNB-19 CNS = tested on: SNB-19 CNS
OVCAR-4 ovarian = tested on: OVCAR-4 ovarian
LOX IMVI melanoma = tested on: LOX IMVI melanoma
MDA-MB-435 = tested on: MDA-MB-435
K-562 leukemia = tested on: K-562 leukemia
IGROV1 ovarian = tested on: IGROV1 ovarian
T-47D breast = tested on: T-47D breast
UACC-257 melanoma = tested on: UACC-257 melanoma
SK-MEL-5 melanoma = tested on: SK-MEL-5 melanoma
ACHN renal = tested on: ACHN renal
SF-295 CNS = tested on: SF-295 CNS
HCT-116 colon = tested on: HCT-116 colon
CCRF-CEM leukemia = tested on: CCRF-CEM leukemia
MCF7 breast = tested on: MCF7 breast
SK-MEL-28 melanoma = tested on: SK-MEL-28 melanoma
EKVX NSCLC = tested on: EKVX NSCLC
OVCAR-3 ovarian = tested on: OVCAR-3 ovarian
SF-268 CNS = tested on: SF-268 CNS
SW-620 colon = tested on: SW-620 colon
HCC-2998 colon = tested on: HCC-2998 colon
DU-145 prostate = tested on: DU-145 prostate
HS 578T breast = tested on: HS 578T breast
MOLT-4 leukemia = tested on: MOLT-4 leukemia
SNB-75 CNS = tested on: SNB-75 CNS

COc1ccc2c(c1OC)-c1c(c3ccc([N+](=O)[O-])cc3c(=O)n1CCCN)C2=O
GI50 (NCI/ADR-RES ovarian): 4.83 µM | TGI (NCI/ADR-RES ovarian): 9.76 µM | GI50 (SK-OV-3 ovarian): 7.9 µM | TGI (SK-OV-3 ovarian): 17.6 µM | GI50 (HOP-92 NSCLC): 12.3 µM | TGI (HOP-92 NSCLC): 27.1 µM | GI50 (A549 NSCLC): 4.37 µM | TGI (A549 NSCLC): 9.27 µM | GI50 (NCI-H226 lung): 3.95 µM | TGI (NCI-H226 lung): 8.79 µM | GI50 (MALME-3M melanoma): 4.97 µM | TGI (MALME-3M melanoma): 10.5 µM | GI50 (HOP-62 NSCLC): 10.7 µM | TGI (HOP-62 NSCLC): 23.9 µM | GI50 (PC-3 prostate): 4.59 µM | TGI (PC-3 prostate): 10.5 µM | GI50 (NCI-H522 lung): 3.54 µM | TGI (NCI-H522 lung): 9.33 µM | GI50 (HL-60(TB) leukemia): 1.35 µM | TGI (HL-60(TB) leukemia): 2.63 µM | GI50 (786-0 renal): 4.76 µM | TGI (786-0 renal): 9.22 µM | GI50 (OVCAR-5 ovarian): 5.31 µM | TGI (OVCAR-5 ovarian): 9.74 µM | GI50 (UACC-62 melanoma): 3.52 µM | TGI (UACC-62 melanoma): 7.32 µM | GI50 (SN12C renal): 3.79 µM | TGI (SN12C renal): 7.86 µM | GI50 (SK-MEL-2 melanoma): 4.56 µM | TGI (SK-MEL-2 melanoma): 9.77 µM | GI50 (TK-10 renal): 5.72 µM | TGI (TK-10 renal): 12 µM | GI50 (BT-549 breast): 4.19 µM | TGI (BT-549 breast): 9.24 µM | GI50 (NCI-H23 lung): 4.7 µM | TGI (NCI-H23 lung): 9.19 µM | GI50 (NCI-H460 lung): 3.47 µM | TGI (NCI-H460 lung): 12.3 µM | GI50 (UO-31 renal): 3.81 µM | TGI (UO-31 renal): 7.89 µM | GI50 (A498 renal): 3.03 µM | TGI (A498 renal): 14.3 µM | GI50 (MDA-MB-231 breast): 1.87 µM | TGI (MDA-MB-231 breast): 3.95 µM | GI50 (CAKI-1 renal): 9.49 µM | TGI (CAKI-1 renal): 24.7 µM | GI50 (M14 melanoma): 7.27 µM | TGI (M14 melanoma): 20.8 µM | GI50 (RPMI-8226 leukemia): 1.01 µM | TGI (RPMI-8226 leukemia): 3.32 µM | GI50 (SR leukemia): 0.1 µM | TGI (SR leukemia): 0.272 µM | GI50 (HCT-15 colon): 3.37 µM | TGI (HCT-15 colon): 7.11 µM | GI50 (U251 CNS): 1.83 µM | TGI (U251 CNS): 5.76 µM | GI50 (OVCAR-8 ovarian): 3.53 µM | TGI (OVCAR-8 ovarian): 12.9 µM | GI50 (SF-539 CNS): 4.42 µM | TGI (SF-539 CNS): 9.02 µM | GI50 (COLO 205 colon): > 100 µM | TGI (COLO 205 colon): > 100 µM | GI50 (HT29 colon): 1.6 µM | TGI (HT29 colon): 8 µM | GI50 (KM12 colon): 4.31 µM | TGI (KM12 colon): 10.7 µM | GI50 (RXF 393 renal): 4.32 µM | TGI (RXF 393 renal): 10.1 µM | TGI (SNB-19 CNS): > 20.2 µM | GI50 (OVCAR-4 ovarian): 5.49 µM | TGI (OVCAR-4 ovarian): 12.1 µM | GI50 (LOX IMVI melanoma): 3.18 µM | TGI (LOX IMVI melanoma): 7.26 µM | GI50 (MDA-MB-435): 12.7 µM | TGI (MDA-MB-435): 28.2 µM | GI50 (K-562 leukemia): 1.01 µM | TGI (K-562 leukemia): 3.94 µM | GI50 (IGROV1 ovarian): 2.02 µM | TGI (IGROV1 ovarian): 6.78 µM | TGI (T-47D breast): > 20.1 µM | GI50 (UACC-257 melanoma): 4.97 µM | TGI (UACC-257 melanoma): 9.74 µM | GI50 (SK-MEL-5 melanoma): 4.33 µM | TGI (SK-MEL-5 melanoma): 8.82 µM | GI50 (ACHN renal): 0.749 µM | TGI (ACHN renal): 3.33 µM | GI50 (SF-295 CNS): 5.72 µM | TGI (SF-295 CNS): 11.5 µM | GI50 (HCT-116 colon): 4.99 µM | TGI (HCT-116 colon): 9.23 µM | GI50 (CCRF-CEM leukemia): 1.27 µM | TGI (CCRF-CEM leukemia): 3.64 µM | GI50 (MCF7 breast): 1.89 µM | TGI (MCF7 breast): 13.9 µM | GI50 (SK-MEL-28 melanoma): 5.34 µM | TGI (SK-MEL-28 melanoma): 10.4 µM | GI50 (EKVX NSCLC): 4.98 µM | TGI (EKVX NSCLC): 11 µM | GI50 (OVCAR-3 ovarian): 16.2 µM | TGI (OVCAR-3 ovarian): 32.6 µM | GI50 (SF-268 CNS): 3.54 µM | TGI (SF-268 CNS): 13.6 µM | GI50 (SW-620 colon): 0.573 µM | TGI (SW-620 colon): 4.81 µM | GI50 (HCC-2998 colon): 3.87 µM | TGI (HCC-2998 colon): 7.8 µM | GI50 (DU-145 prostate): 3.36 µM | TGI (DU-145 prostate): 7.8 µM | GI50 (HS 578T breast): 5.32 µM | TGI (HS 578T breast): 12 µM | GI50 (MOLT-4 leukemia): 0.692 µM | TGI (MOLT-4 leukemia): 3.68 µM | TGI (SNB-75 CNS): 1.56 µM
